Source: patent publication US20230017045A1, “PYRIDINE AND PYRIMIDINE CARBOXYLATE HERBICIDES AND METHODS OF USE THEREOF” (Dow AgroSciences LLC, priority 2017, published 2023)

What follows are compounds tested on test plant species (assay: Post-emergent herbicidal activity test (greenhouse, foliar spray, visual growth reduction)). Conditions: post-emergence, 336 h, ALOMY: blackgrass (Alopecurus myosuroides), 140 g ai/ha, 14 days after application, read-out: Visual Growth Reduction (%) 14 Days After Application, ALOMY.
Format: in vivo
Method: Post-emergent Test: Seeds or nutlets of the desired test plant species were planted in Sun Gro Metro-Mix® 360 planting mixture, which typically has a pH of 6.0 to 6.8 and an organic matter content of about 30 percent, in plastic pots with a surface area of 64 square centimeters. In some aspects, to ensure good germination and healthy plants, a fungicide treatment and/or other chemical or physical treatment was applied. The plants were grown for 7-21 d in a greenhouse with an approximate 15 h photoperiod which was maintained at 23-29° C. during the day and 22-28° C. during the night. Nutrients and water were added on a regular basis and supplemental lighting was provided with overhead metal halide 1000-Watt lamps as necessary. Plants were used for testing when they reached the first or second true leaf stage. A weighed amount, determined by the highest rate to be tested, of each test compound was placed in a 25 mL glass vial and was dissolved in 4 mL of a 97:3 v/v mixture of acetone and DMSO to obtain concentrated stock solutions. […] The concentrated stock solutions obtained were diluted with 20 mL of an aqueous mixture containing acetone, water, isopropyl alcohol, DMSO, […] crop oil concentrate, and X-77 surfactant in a 48.5:39:10:1.5:1.0:0.02 v/v ratio to obtain spray solutions containing the application rate. Compound requirements are based upon a 12 mL application volume at a rate of 187 liters per hectare (L/ha). Formulated compounds were applied to the plant material with an overhead Mandel track sprayer equipped with […] nozzles calibrated to deliver 187 L/ha over an application area of 0.64 square meters at a spray height of 18 inches (43 cm) above the average plant canopy height. Control plants were sprayed in the same manner with the solvent blank. The treated plants and control plants were placed in a greenhouse as described above and watered by subirrigation to prevent wash-off of the test compounds. After 14 d, the condition of the test plants as compared with that of the nontreated and control plants was determined visually and scored on a scale of 0 to 100 percent where 0 corresponds to no injury and 100 corresponds to complete control. In the reporting of the results, Table A: Percent Growth Reduction Conversion Table was used.
`COC(=O)c1nc(-c2ccc(C(F)(F)F)cc2C)ccc1Cl` [F29, Methyl 3-chloro-6-(2-methyl-4-(trifluoromethyl)phenyl)picolinate] gave a pest or weed control at 140 g/ha of 0 to 29%.
With `COC(=O)c1nc(-c2cc(Cl)c(C#N)cc2Cl)ccc1Cl` [F50, Methyl 3-chloro-6-(2,5-dichloro-4-cyanophenyl) picolinate] the pest or weed control at 140 g/ha was 0 to 29%.

Same assay, conditions: post-emergence, 336 h, AMARE: redroot pigweed (Amaranthus retroflexus), 140 g ai/ha, 14 days after application, read-out: Visual Growth Reduction (%) 14 Days After Application, AMARE
Work on `COC(=O)c1nc(-c2ccc(C(F)(F)F)cc2C)ccc1Cl` [F29, Methyl 3-chloro-6-(2-methyl-4-(trifluoromethyl)phenyl)picolinate] yielded a pest or weed control at 140 g/ha of 60 to 74%.
`COC(=O)c1nc(-c2cc(Cl)c(C#N)cc2Cl)ccc1Cl` [F50, Methyl 3-chloro-6-(2,5-dichloro-4-cyanophenyl) picolinate] was tested, and the pest or weed control at 140 g/ha was 0 to 29%.

Same assay, conditions: post-emergence, 336 h, AVEFA: wild oat (Avena fatua), 140 g ai/ha, 14 days after application, read-out: Visual Growth Reduction (%) 14 Days After Application, AVEFA
Compound `COC(=O)c1nc(-c2ccc(C(F)(F)F)cc2C)ccc1Cl` [F29, Methyl 3-chloro-6-(2-methyl-4-(trifluoromethyl)phenyl)picolinate] has a pest or weed control at 140 g/ha of 0 to 29%.
With `COC(=O)c1nc(-c2cc(Cl)c(C#N)cc2Cl)ccc1Cl` [F50, Methyl 3-chloro-6-(2,5-dichloro-4-cyanophenyl) picolinate] the pest or weed control at 140 g/ha was 0 to 29%.

Same assay, conditions: post-emergence, 336 h, CHEAL: lambsquarters (Chenopodium album), 140 g ai/ha, 14 days after application, read-out: Visual Growth Reduction (%) 14 Days After Application, CHEAL
`COC(=O)c1nc(-c2ccc(C(F)(F)F)cc2C)ccc1Cl` [F29, Methyl 3-chloro-6-(2-methyl-4-(trifluoromethyl)phenyl)picolinate] gave a pest or weed control at 140 g/ha of 60 to 74%.
For `COC(=O)c1nc(-c2cc(Cl)c(C#N)cc2Cl)ccc1Cl` [F50, Methyl 3-chloro-6-(2,5-dichloro-4-cyanophenyl) picolinate], the pest or weed control at 140 g/ha was 60 to 74%.

Same assay, conditions: post-emergence, 336 h, CIRAR: canada thistle (Cirsium arvense), 140 g ai/ha, 14 days after application, read-out: Visual Growth Reduction (%) 14 Days After Application, CIRAR
For `COC(=O)c1nc(-c2ccc(C(F)(F)F)cc2C)ccc1Cl` [F29, Methyl 3-chloro-6-(2-methyl-4-(trifluoromethyl)phenyl)picolinate], the pest or weed control at 140 g/ha was 0 to 29%.
`COC(=O)c1nc(-c2cc(Cl)c(C#N)cc2Cl)ccc1Cl` [F50, Methyl 3-chloro-6-(2,5-dichloro-4-cyanophenyl) picolinate] showed a pest or weed control at 140 g/ha of 0 to 29%.

Same assay, conditions: post-emergence, 336 h, CYPES: yellow nutsedge (Cyperus esculentus), 140 g ai/ha, 14 days after application, read-out: Visual Growth Reduction (%) 14 Days After Application, CYPES
With `COC(=O)c1nc(-c2ccc(C(F)(F)F)cc2C)ccc1Cl` [F29, Methyl 3-chloro-6-(2-methyl-4-(trifluoromethyl)phenyl)picolinate] the pest or weed control at 140 g/ha was 0 to 29%.
`COC(=O)c1nc(-c2cc(Cl)c(C#N)cc2Cl)ccc1Cl` [F50, Methyl 3-chloro-6-(2,5-dichloro-4-cyanophenyl) picolinate] was tested, and the pest or weed control at 140 g/ha was 0 to 29%.

Same assay, conditions: post-emergence, 336 h, DIGSA: crabgrass (Digitaria sanguinalis), 140 g ai/ha, 14 days after application, read-out: Visual Growth Reduction (%) 14 Days After Application, DIGSA
`COC(=O)c1nc(-c2ccc(C(F)(F)F)cc2C)ccc1Cl` [F29, Methyl 3-chloro-6-(2-methyl-4-(trifluoromethyl)phenyl)picolinate] showed a pest or weed control at 140 g/ha of 45 to 59%.
Work on `COC(=O)c1nc(-c2cc(Cl)c(C#N)cc2Cl)ccc1Cl` [F50, Methyl 3-chloro-6-(2,5-dichloro-4-cyanophenyl) picolinate] yielded a pest or weed control at 140 g/ha of 0 to 29%.

Same assay, conditions: post-emergence, 336 h, ECHCG: barnyardgrass (Echinochloa crus-galli), 140 g ai/ha, 14 days after application, read-out: Visual Growth Reduction (%) 14 Days After Application, ECHCG
`COC(=O)c1nc(-c2ccc(C(F)(F)F)cc2C)ccc1Cl` [F29, Methyl 3-chloro-6-(2-methyl-4-(trifluoromethyl)phenyl)picolinate] gave a pest or weed control at 140 g/ha of 0 to 29%.
With `COC(=O)c1nc(-c2cc(Cl)c(C#N)cc2Cl)ccc1Cl` [F50, Methyl 3-chloro-6-(2,5-dichloro-4-cyanophenyl) picolinate] the pest or weed control at 140 g/ha was 0 to 29%.

Same assay, conditions: post-emergence, 336 h, IPOHE: ivy-leaf morning glory (Ipomoea hederacea), 140 g ai/ha, 14 days after application, read-out: Visual Growth Reduction (%) 14 Days After Application, IPOHE
For `COC(=O)c1nc(-c2ccc(C(F)(F)F)cc2C)ccc1Cl` [F29, Methyl 3-chloro-6-(2-methyl-4-(trifluoromethyl)phenyl)picolinate], the pest or weed control at 140 g/ha was 95 to 100%.

Same assay, conditions: post-emergence, 336 h, KCHSC: kochia (Bassia scoparia), 140 g ai/ha, 14 days after application, read-out: Visual Growth Reduction (%) 14 Days After Application, KCHSC
Compound `COC(=O)c1nc(-c2ccc(C(F)(F)F)cc2C)ccc1Cl` [F29, Methyl 3-chloro-6-(2-methyl-4-(trifluoromethyl)phenyl)picolinate] has a pest or weed control at 140 g/ha of 0 to 29%.
Compound `COC(=O)c1nc(-c2cc(Cl)c(C#N)cc2Cl)ccc1Cl` [F50, Methyl 3-chloro-6-(2,5-dichloro-4-cyanophenyl) picolinate] has a pest or weed control at 140 g/ha of 0 to 29%.

Same assay, conditions: post-emergence, 336 h, ORYSA: rice (Oryza sativa), 140 g ai/ha, 14 days after application, read-out: Visual Growth Reduction (%) 14 Days After Application, ORYSA
With `COC(=O)c1nc(-c2ccc(C(F)(F)F)cc2C)ccc1Cl` [F29, Methyl 3-chloro-6-(2-methyl-4-(trifluoromethyl)phenyl)picolinate] the pest or weed control at 140 g/ha was 0 to 29%.
In the case of `COC(=O)c1nc(-c2cc(Cl)c(C#N)cc2Cl)ccc1Cl` [F50, Methyl 3-chloro-6-(2,5-dichloro-4-cyanophenyl) picolinate], the pest or weed control at 140 g/ha was 0 to 29%.

Same assay, conditions: post-emergence, 336 h, SETFA: giant foxtail (Setaria faberi), 140 g ai/ha, 14 days after application, read-out: Visual Growth Reduction (%) 14 Days After Application, SETFA
For `COC(=O)c1nc(-c2ccc(C(F)(F)F)cc2C)ccc1Cl` [F29, Methyl 3-chloro-6-(2-methyl-4-(trifluoromethyl)phenyl)picolinate], the pest or weed control at 140 g/ha was 0 to 29%.
Compound `COC(=O)c1nc(-c2cc(Cl)c(C#N)cc2Cl)ccc1Cl` [F50, Methyl 3-chloro-6-(2,5-dichloro-4-cyanophenyl) picolinate] has a pest or weed control at 140 g/ha of 0 to 29%.

Same assay, conditions: post-emergence, 336 h, SORVU: grain sorghum (Sorghum vulgare), 140 g ai/ha, 14 days after application, read-out: Visual Growth Reduction (%) 14 Days After Application, SORVU
`COC(=O)c1nc(-c2ccc(C(F)(F)F)cc2C)ccc1Cl` [F29, Methyl 3-chloro-6-(2-methyl-4-(trifluoromethyl)phenyl)picolinate] showed a pest or weed control at 140 g/ha of 60 to 74%.
`COC(=O)c1nc(-c2cc(Cl)c(C#N)cc2Cl)ccc1Cl` [F50, Methyl 3-chloro-6-(2,5-dichloro-4-cyanophenyl) picolinate] showed a pest or weed control at 140 g/ha of 0 to 29%.

Same assay, conditions: post-emergence, 336 h, STEME: common chickweed (Stellaria media), 140 g ai/ha, 14 days after application, read-out: Visual Growth Reduction (%) 14 Days After Application, STEME
`COC(=O)c1nc(-c2ccc(C(F)(F)F)cc2C)ccc1Cl` [F29, Methyl 3-chloro-6-(2-methyl-4-(trifluoromethyl)phenyl)picolinate] was tested, and the pest or weed control at 140 g/ha was 0 to 29%.
`COC(=O)c1nc(-c2cc(Cl)c(C#N)cc2Cl)ccc1Cl` [F50, Methyl 3-chloro-6-(2,5-dichloro-4-cyanophenyl) picolinate] was tested, and the pest or weed control at 140 g/ha was 0 to 29%.

Same assay, conditions: post-emergence, 336 h, TRZAS: wheat, spring (Triticum aestivum), 140 g ai/ha, 14 days after application, read-out: Visual Growth Reduction (%) 14 Days After Application, TRZAS
Work on `COC(=O)c1nc(-c2ccc(C(F)(F)F)cc2C)ccc1Cl` [F29, Methyl 3-chloro-6-(2-methyl-4-(trifluoromethyl)phenyl)picolinate] yielded a pest or weed control at 140 g/ha of 0 to 29%.
Work on `COC(=O)c1nc(-c2cc(Cl)c(C#N)cc2Cl)ccc1Cl` [F50, Methyl 3-chloro-6-(2,5-dichloro-4-cyanophenyl) picolinate] yielded a pest or weed control at 140 g/ha of 0 to 29%.
